Data from patent US9873702B2, “Heterocyclic compounds as biogenic amine transport modulators” (Southern Research Institute, priority 2014, dated 2018).

Legend:
[1] = target: dopamine transporter (DAT) (Rattus norvegicus, UniProt P23977); test: Dopamine reuptake ([^3H]dopamine uptake) inhibition in rat brain synaptosomes; conditions: for IC50: DA Uptake EC50 (nM ± SD), rat caudate synaptosomes, 5 nM [^3H]dopamine, 15 min, 25° C., three experiments pooled; for Emax: read-out: DA Uptake Emax (% I ± SD)
Chain of dopamine transporter (DAT) (P23977 whole entry): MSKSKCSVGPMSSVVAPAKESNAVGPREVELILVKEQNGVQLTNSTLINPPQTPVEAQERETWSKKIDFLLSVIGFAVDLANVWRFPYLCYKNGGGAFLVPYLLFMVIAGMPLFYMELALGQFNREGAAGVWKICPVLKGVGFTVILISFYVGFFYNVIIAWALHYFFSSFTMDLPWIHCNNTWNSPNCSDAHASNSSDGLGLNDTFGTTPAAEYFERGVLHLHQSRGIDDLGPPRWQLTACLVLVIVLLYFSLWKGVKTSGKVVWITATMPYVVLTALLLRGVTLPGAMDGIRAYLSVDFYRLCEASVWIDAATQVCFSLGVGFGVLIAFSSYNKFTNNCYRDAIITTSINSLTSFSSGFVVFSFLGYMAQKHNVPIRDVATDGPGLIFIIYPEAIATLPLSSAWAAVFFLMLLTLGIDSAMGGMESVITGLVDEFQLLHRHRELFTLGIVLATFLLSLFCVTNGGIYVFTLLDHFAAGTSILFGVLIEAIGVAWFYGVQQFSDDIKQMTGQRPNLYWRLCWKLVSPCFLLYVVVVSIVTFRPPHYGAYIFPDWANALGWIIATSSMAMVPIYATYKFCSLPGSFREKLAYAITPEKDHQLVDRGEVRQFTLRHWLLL
Description: Freshly removed caudate was homogenized in 10% ice-cold sucrose with 12 strokes of a hand-held Potter-Elvehj em homogenizer followed by centrifugation at 1000×g for 10 min. The supernatants were saved on ice and used immediately. Transporter activity was assessed using 5 nM [^3H]dopamine. […] The selectivity of the uptake assay for dopamine active transporter (DAT) was optimized by including 100 nM citalopram and 100 nM desipramine as blockers of serotonin transporter (SERT) and norepinephrine transporter (NET) in the sucrose solution and assay buffer. Uptake inhibition assays were conducted at 25° C. and were initiated by adding 100 μl of tissue to 900 μL assay buffer containing test drug and [^3H]dopamine. Test drugs were diluted in assay buffer containing 1 mg/mL bovine serum albumin. Nonspecific uptake was measured by incubating in the presence of 10 μM indatraline. The reactions were stopped after 15 minutes by rapid vacuum filtration with a cell harvester (BRANDEL) over GF/B filters (Whatman) presoaked in wash buffer maintained at 25° C. (10 mM Tris-HCl, pH 7.4/150 mM NaCl). Filters were rinsed with 6 mL wash buffer and retained tritium was quantified by a MicroBeta liquid scintillation counter (PerkinElmer) after overnight extraction in 0.6 mL of liquid scintillation cocktail (Cytoscint, ICN). The data from three experiments were pooled and fit to a dose-response curve equation (using Kaleidagraph), to yield an Emax and EC50 value.
The data from three experiments were pooled and fit to a dose-response curve equation (using KaleidaGraph; Synergy Software, Reading, Pa.) to yield an Emax and IC50 value.

melting point	IC50 [1]	Emax [1]	SMILES
208 °C	121 ± 27 nM	66 ± 3%	c1ccc(C(CNc2nc(-c3cnc(N4CCCC4)nc3)nc3ccccc23)c2ccccc2)cc1 [compound 37, N-(2,2-Diphenylethyl)-2-(2-(Pyrrolidin-1-yl)Pyrimidin-5-yl)Quinazolin-4-Amine]
92 °C	1420 nM	100%	c1ccc(C(CNc2nc(-c3cnc(N4CCCCC4)nc3)nc3ccccc23)c2ccccc2)cc1 [compound 38, N-(2,2-Diphenylethyl)-2-(2-(Piperidin-1-yl)Pyrimidin-5-yl)Quinazolin-4-Amine]
242 °C	47 ± 6 nM	78 ± 2%	c1ccc(C(CNc2nc(-c3ccncc3)nc3ccccc23)c2ccccc2)cc1 [compound 39, N-(2,2-Diphenylethyl)-2-(Pyridin-4-yl)Quinazolin-4-Amine]
189 °C	1890 nM	< 100%	CC(C)(C)OC(=O)Nc1ncc(-c2nc(NCC(c3ccccc3)c3ccccc3)c3ccccc3n2)cn1 [compound 43, Tert-Butyl (5-(4-((2,2-Diphenylethyl)Amino)Quinazolin-2-yl)Pyrimidin-2-yl)Carbamate]
148 °C	79 ± 19 nM	81 ± 3%	Nc1ncc(-c2nc(NCC(c3ccccc3)c3ccccc3)c3ccccc3n2)cn1 [compound 44, 2-(2-Aminopyrimidin-5-yl)-N-(2,2-Diphenylethyl)Quinazolin-4-Amine]
224 °C	175 ± 68 nM	58 ± 4%	FC(F)(F)CNc1ncc(-c2nc(NCC(c3ccccc3)c3ccccc3)c3ccccc3n2)cn1 [compound 45, N-(2,2-Diphenylethyl)-2-(2-((2,2,2-Trifluoroethyl)Amino)Pyrimidin-5-yl)Quinazolin-4-Amine]
184 °C	544 ± 248 nM	60 ± 6%	c1ccc(CNc2ncc(-c3nc(NCC(c4ccccc4)c4ccccc4)c4ccccc4n3)cn2)cc1 [compound 46, 2-(2-(Benzylamino)Pyrimidin-5-yl)-N-(2,2-Diphenylethyl)Quinazolin-4-Amine]
199 °C	148 ± 40 nM	73 ± 4%	COCCNc1ncc(-c2nc(NCC(c3ccccc3)c3ccccc3)c3ccccc3n2)cn1 [compound 47, N-(2,2-Diphenylethyl)-2-(2-((2-Methoxyethyl)Amino)Pyrimidin-5-yl)Quinazolin-4-Amine]
198 °C	89 ± 13 nM	70 ± 2%	c1ccc(C(CNc2nc(-c3ccc4nccnc4c3)nc3ccccc23)c2ccccc2)cc1 [compound 56, N-(2,2-Diphenylethyl)-2-(Quinoxalin-6-yl)Quinazolin-4-Amine]
220 °C	192 ± 37 nM	72 ± 3%	c1ccc(C(CNc2nc(-c3ccc4[nH]nnc4c3)nc3ccccc23)c2ccccc2)cc1 [compound 63, 2-(1H-Benzo[D][1,2,3]Triazol-5-yl)-N-(2,2-Diphenylethyl)Quinazolin-4-Amine]
248 °C	19 ± 3 nM	75 ± 2%	Cn1cnc2ccc(-c3nc(NCC(c4ccccc4)c4ccccc4)c4ccccc4n3)cc21 [compound 64, N-(2,2-Diphenylethyl)-2-(1-Methyl-1H-Benzo [D]Imidazol-6-yl)Quinazolin-4-Amine]
200 °C	43 ± 9 nM	66 ± 2%	Cn1ncc2cc(-c3nc(NCC(c4ccccc4)c4ccccc4)c4ccccc4n3)ccc21 [compound 67, N-(2,2-Diphenylethyl)-2-(1-Methyl-1H-Indazol-5-yl)Quinazolin-4-Amine]
198 °C	45 ± 15 nM	67 ± 4%	c1ccc(C(CNc2nc(-c3ccc4ncsc4c3)nc3ccccc23)c2ccccc2)cc1 [compound 70, 2-(Benzo [D]Thiazol-6-yl)-N-(2,2-Diphenylethyl)Quinazolin-4-Amine]
233 °C	62 nM	100%	c1ccc(C(CNc2nc(-c3cn[nH]c3)nc3ccccc23)c2ccccc2)cc1 [compound 75, N-(2,2-Diphenylethyl)-2-(1H-Pyrazol-4-yl)Quinazolin-4-Amine]
211 °C	170 nM	< 100%	Cn1cc(-c2nc(NCC(c3ccccc3)c3ccccc3)c3ccccc3n2)cn1 [compound 76, N-(2,2-Diphenylethyl)-2-(1-Methyl-1H-Pyrazol-4-yl)Quinazolin-4-Amine]

Continued, molecule first:

SMILES	melting point	IC50 [1]	Emax [1]
c1ccc(C(CNc2nc(-c3ccc4[nH]ncc4c3)nc3ccccc23)c2ccccc2)cc1 [compound 40, N-(2,2-Diphenylethyl)-2-(1H-Indazol-5-yl)Quinazolin-4-Amine]	191 °C	124 ± 37 nM	74 ± 4%
c1ccc(C(CNc2nc(-c3cc4ccccc4[nH]3)nc3ccccc23)c2ccccc2)cc1 [compound 42, N-(2,2-Diphenylethyl)-2-(1H-Indol-2-yl)Quinazolin-4-Amine]	93 °C	200 nM	< 100%
c1ccc(C(CNc2nc(-n3ccnc3)nc3ccccc23)c2ccccc2)cc1 [compound 48, N-(2,2-Diphenylethyl)-2-(1H-Imidazol-1-yl)Quinazolin-4-Amine]	231 °C	38 ± 5 nM	73 ± 2%
c1ccc(C(CNc2nc(-c3cccc4ncccc34)nc3ccccc23)c2ccccc2)cc1 [compound 49, N-(2,2-Diphenylethyl)-2-(Quinolin-5-yl)Quinazolin-4-Amine]	207 °C	130 ± 16 nM	73 ± 2%
c1ccc(C(CNc2nc(-c3ccc4ncccc4c3)nc3ccccc23)c2ccccc2)cc1 [compound 50, N-(2,2-Diphenylethyl)-2-(Quinolin-6-yl)Quinazolin-4-Amine]	92 °C	26 ± 7 nM	68 ± 3%
c1ccc(C(CNc2nc(-n3cccn3)nc3ccccc23)c2ccccc2)cc1 [compound 51, N-(2,2-Diphenylethyl)-2-(1H-Pyrazol-1-yl)Quinazolin-4-Amine]	191 °C	510 nM	< 100%
c1ccc(C(CNc2nc(-n3cncn3)nc3ccccc23)c2ccccc2)cc1 [compound 52, N-(2,2-Diphenylethyl)-2-(1H-1,2,4-Triazol-1-yl)Quinazolin-4-Amine]	216 °C	680 nM	100%
Cc1nc(C)c(-c2nc(NCC(c3ccccc3)c3ccccc3)c3ccccc3n2)s1 [compound 54, 2-(2,4-Dimethylthiazol-5-yl)-N-(2,2-Diphenylethyl)Quinazolin-4-Amine]	78 °C	72 ± 12 nM	80 ± 2%
CN(C)c1ncc(-c2cccc(C(CNc3nc(-c4cnc(N(C)C)nc4)nc4ccccc34)c3ccccc3)n2)cn1 (stereo not drawn) [compound 57, 2-(2-(Dimethylamino)Pyrimidin-5-yl)-N-(2-(6-(2-(Dimethylamino)Pyrimidin-5-yl)Pyridin-2-yl)-2-Phenylethyl)Quinazolin-4-Amine]	112 °C	55 ± 18 nM	61 ± 3%
c1ccc(C(CNc2nc(-c3ccc4[nH]ccc4c3)nc3ccccc23)c2cccc(-c3ccc4[nH]ccc4c3)n2)cc1 (stereo not drawn) [compound 58, N-(2-(6-(1H-Indol-5-yl)Pyridin-2-yl)-2-Phenylethyl)-2-(1H-Indol-5-yl)Quinazolin-4-Amine]	151 °C	478 ± 154 nM	65 ± 5%
COc1ccc2nc(-c3cccnc3)nc(NCC(c3ccccc3)c3ccccc3)c2c1 [compound 59, N-(2,2-Diphenylethyl)-6-Methoxy-2-(Pyridin-3-yl)Quinazolin-4-Amine]	77 °C	529 ± 146 nM	56 ± 3%
COc1ccc2nc(-c3cnc(N(C)C)nc3)nc(NCC(c3ccccc3)c3ccccc3)c2c1 [compound 60, 2-(2-(Dimethylamino)Pyrimidin-5-yl)-N-(2,2-Diphenylethyl)-6-Methoxyquinazolin-4-Amine]	198 °C	947 ± 402 nM	55 ± 6%
COc1ccc2nc(-c3ccc4[nH]ccc4c3)nc(NCC(c3ccccc3)c3ccccc3)c2c1 [compound 61, N-(2,2-Diphenylethyl)-2-(1H-Indol-5-yl)-6-Methoxyquinazolin-4-Amine]	112 °C	115 ± 20 nM	80 ± 3%
CC(C)(C)OC(=O)n1cnc2cc(-c3nc(NCC(c4ccccc4)c4ccccc4)c4ccccc4n3)ccc21 [compound 62, Tert-Butyl 5-(4-((2,2-Diphenylethyl)Amino)Quinazolin-2-yl)-1H-Benzo [D]Imidazole-1-Carboxylate]	183 °C	4210 nM	< 100%
Cn1ncc2c(-c3nc(NCC(c4ccccc4)c4ccccc4)c4ccccc4n3)cccc21 [compound 65, N-(2,2-Diphenylethyl)-2-(1-Methyl-1H-Indazol-4-yl)Quinazolin-4-Amine]	201 °C	155 ± 92 nM	50 ± 6%
Cn1cc2c(-c3nc(NCC(c4ccccc4)c4ccccc4)c4ccccc4n3)cccc2n1 [compound 68, N-(2,2-Diphenylethyl)-2-(2-Methyl-2H-Indazol-4-yl)Quinazolin-4-Amine]	121 °C	195 ± 70 nM	55 ± 4%
CC(C)(C)OC(=O)N1CCCc2ccc(-c3nc(NCC(c4ccccc4)c4ccccc4)c4ccccc4n3)cc21 [compound 71, Tert-Butyl 7-(4-((2,2-Diphenylethyl)Amino)Quinazolin-2-yl)-3,4-Dihydroquinoline-1(2H)-Carboxylate]	89 °C	890 nM	< 100%
CC(C)(C)OC(=O)n1cc(-c2nc(NCC(c3ccccc3)c3ccccc3)c3ccccc3n2)c2cccnc21 [compound 73, Tert-Butyl 3-(4-((2,2-Diphenylethyl)Amino)Quinazolin-2-yl)-1H-Pyrrolo[2,3-B]Pyridine-1-Carboxylate]	105 °C	1310 nM	< 100%
